Reference: patent publication US9700024B2 (priority 2010, dated 2017)
“Also recorded” adds a separate entry of the source.

Legend:
[1] = system: rat model of preeclampsia; settings: Hypertension 2007; 50(4): 686-92; cited from earlier work
mPIGF [2] = test: mPIGF concentration in the mother's blood by ELISA, LV-hsFLT1 model; type: in vivo, mouse; settings: E18.5, pravastatin every day from E7.5, n=7
Description: (§1) Blood samples were allowed to clot and were centrifuged to prepare serum samples. Concentrations of hsF1T1, mVEGF, and mPIGF were measured with ELISA kits, according to the manufacturer's instructions (R&D system). Aspartate aminotransferase (AST) and alanine transaminase (ALT) were measured by Fuji dry-chem 3500V and dri-chem slides (Fuji Film.co). Urine samples were collected at E18.5. Urine albumin and creatinine concentrations were measured by using the Fuji dry-chem 3500V and dri-chem slides (Fuji Film.co, Tokyo Japan).

mVEGF = mVEGF concentration in the mother's blood by ELISA; type: in vivo, mouse; settings: E18.5; LV-hsFLT1 model; pravastatin every day from E7.5; n=6
Description: as §1

mPIGF [3] = test: Circulating mPIGF in wild-type female mice not treated with viral vector; type: in vivo, mouse
Description: Pravastatin sodium salt (Cayman Chemical) was dissolved in 100% ethanol to produce a stock solution (1 mg/mL), which was diluted by sterile PBS (25 μg/mL) before use and intraperitoneally injected every day starting from E7.5 to E18.5 at 5 μg/animal unless specifically instructed otherwise.
as §1

hsFLT1 = hsFLT1 concentration in the mother's blood by ELISA; type: in vivo, mouse; settings: E18.5; LV-hsFLT1 100 ng-p24/mL; pravastatin every day from E7.5 where given; mean±s.e.m.
Description: as §1

[4] = system: pregnancy-induced hypertension syndrome model mice (placenta-specific hsFLT1 expression); test: Urinary albumin/creatinine (proteinuria) in model mice; type: in vivo, mouse; settings: urine at E18.5; average ± S.E.M.
Description: as §1

[5] = system: pups of the pravastatin-treated female animals; test: Deformity in pups of treated female animals
wild-type pregnant mice = settings: normal pregnant animals without LV-hsFLT1
Description: Blood pressure was measured by the tail-cuff method (Softron Ltd, Tokyo, Japan). The mice were lightly fixed in a small cage without anesthesia, and their blood pressure was measured after their behavior, heart rate, and blood pressure stabilized. After stabilization, both systolic and diastolic blood pressures were recorded at least five times until the stabilization became unstable. Mean values of both the systolic and diastolic blood pressures measured as mentioned above were used for further statistical analysis.

[6] = system: human umbilical vein endothelial cells (HUVECs); test: In vitro expression of PIGF as an effect of statin, HUVEC; type: cell-based; settings: statin 1 μM or 10 μM, 24 hours
Description: For HUVEC cells, each of the stock solutions was added upon dilution to 1 μM or 10 μM in a culture medium.
HUVEC and HEK293T cells were plated at 2×10^4 and 1×10^5 cells per well in 6-well plates, respectively, and incubated under 5% CO2 at 37° C. After 24 hours, the medium was replaced with a fresh medium containing or not containing a statin. The media collected after another 24 hours were centrifuged at 1,000×g, and the supernatants were subjected to ELISA.

[7] = system: hypertension induced by sFLT1 expressed by an adenovirus; settings: Hypertension 2009; 54(5): 1129-35; cited from earlier work

VEGF
hypertension [1]: improves hypertension

CC[C@H](C)C(=O)O[C@H]1C[C@H](O)C=C2C=C[C@H](C)[C@H](CC[C@@H](O)C[C@@H](O)CC(=O)O)[C@H]21 [pravastatin, Monosodium(3R,5R)-3,5-dihydroxy-7-{(1S,2S,6S,8S,8aR)-6-hydroxy-2-methyl-8-[(2S)-2-methylbutanoyloxy]-1,2,6,7,8,8a-hexahydronaphthalen-1-yl}heptanoate]
mPIGF concentration in maternal blood (mPIGF [2]): 116.6 ± 13.2 pg/mL | mVEGF protein level in maternal blood (mVEGF): 35.5 ± 13.6 pg/mL | circulating mPIGF (mPIGF [3]; wild-type non-pregnant female animals, n=5): 29.8 ± 13.2 pg/mL | circulating mPIGF (mPIGF [3]; wild-type pregnant female animals, n=4): 152.0 ± 19.7 pg/mL | circulating hsFLT1 concentration in the mother's blood (hsFLT1): 0.99 ± 0.65 ng/mL | ALBUMIN/CREATININE AVERAGE [4]: 4.06 ± 0.38 | deformity in the pups [5]: did not notice any deformity | blood pressure / hypotensive effect (wild-type pregnant mice): not hypotensive; also recorded: did not change

CC(C)c1c(C(=O)Nc2ccccc2)c(-c2ccccc2)c(-c2ccc(F)cc2)n1CC[C@@H](O)C[C@@H](O)CC(=O)O [atorvastatin, (−)-Monocalcium bis {(3R,5R)-7-[2-(4-fluorophenyl-5-isopropyl-3-phenyl-4-phenylcarbamoyl-1H-pyrrol-1-yl]-3,5-dihydroxyheptanoate}trihydrate]
PIGF production in supernatant [6]: induced PGF production; also recorded: induce PIGF production

B1: recombinant PIGF: recombinant placental growth factor 2 (literature) (protein)
chain: VHSQGALSAGNNSTEVEVVPFNEVWGRSYCRPMEKLVYILDEYPDEVSHIFSPSCVLLSRCSGCCGDEGLHCVPIKTANITMQILKIPPNRDPHFYVEMTFSQDVLCECRPILETTKAERRKTKGKRKRSRNSQTEEPHP
hypertension [7]: improves hypertension
